Assay results taken from patent US5116981A, “Antiinflammatory leukotriene B4 analogs” (The Upjohn Company, priority 1989, dated 1992).

Experiments:
[1] = tested on: chemotactic response of equimolar concentrations of LTB4; settings: cited from earlier work
[2] = stability of the isolated product on storage; type: physicochemical; settings: for stability in solution: methanol solution; for stability of the neat isolated product: as isolated oil
[3] = tested on: neutrophil; settings: cited from earlier work

Row | Structure (SMILES) | stability in solution [2] | stability of the neat isolated product [2] | further results
1 | CCCCC/C=C\C[C@H](/C=C/C=C/C=C\[C@H](CCCC(=O)O)OC(C)=O)OC(C)=O [LTB4 diacetate] |  |  | inhibition of chemotactic response to LTB4 [1]: competitively inhibit chemotactic response
2 | CCCCCC=CCC(O)C=CC=CC=CC(O)CCCC(=O)N(C)C (stereo not shown) [dimethylamide of LTB4] |  |  | agonist activity ([3]; at the concentrations that inhibit degranulation): no appreciable agonist activity; inhibition of neutrophil degranulation induced by LTB4 [3]: inhibit neutrophil degranulation induced by LTB4
3 | CCCCC/C=C\CC(O)/C=C/c1cccc(CC(O)CCCC(=O)O)n1 (stereo not shown) [Example 35, 2-Pyridinehexanoic acid, delta-hydroxy-6-(3-hydroxy-1,5-undecadienyl) -] | stable methanol solution | unstable oil | 

Further lines, with some results ahead:

Row | stability in solution [2] | stability of the neat isolated product [2] | Structure (SMILES) | further results
4 | stable as a methanol solution |  | CCCCC/C=C\CC(O)C#Cc1cccc(CC(O)CCCC(=O)O)c1 (stereo not shown) [Example 24, Benzenehexanoic acid, delta-hydroxy-3-[(3-hydroxy-5-undecen-1-ynyl)]] | 
5 |  | unstable pale oil | CCCCC/C=C\CC(O)C#Cc1cccc(CC(O)CCCC(=O)O)n1 (stereo not shown) [Example 36, 2-Pyridinehexanoic acid, delta-hydroxy-6-(3-hydroxy-5-undecen-1-ynyl)-] | 
